Legend:
[1] = system: IL-1β; test: IL-1β secretion by ELISA in TNFα-induced mouse splenocytes; type: cell-based; conditions: TNFα 20 nM, 24 hours
Method: Inflammation was induced by treating mouse splenocytes with the inflammatory cytokine TNFα, and the secretion amounts of the inflammatory cytokines IL-17, IL-1B, and IFNγ were confirmed. IL-17 corresponds to a pro-inflammatory cytokine, and the descriptions of IL-1β and IFNγ are the same as above.
Mouse splenocytes were dispensed into a 24-well plate at a concentration of 1×10^7 cells/well and cultured until the next day. The medium was replaced with serum-free medium, and after 4 hours, the cells were treated with TNFα and the peptide of the present invention and then cultured again for another 24 hours. In order to induce inflammation, the cells were treated with TNFα at 20 nM, and the peptide at 5 μM and 50 μM, respectively. The mouse splenocytes in the group in which inflammation was not induced due to untreatment with TNFα (NON); the negative control group in which the cells were treated with TNFα but not treated with the peptide (NC); and the group in which the cells were treated with TNFα along with the peptide of the present invention at the same concentration as above, respectively, were reacted as described above and the cell cultures were recovered. […]

[2] = system: TNFα; test: TNFα mRNA level by RT-PCR in LPS-induced mouse splenocytes; type: cell-based; conditions: LPS 2 μg/mL, peptide at 5 μM and 50 μM, 24 hours, compared to group not treated with the peptide
Method: Inflammation was induced in mouse splenocytes, and the expression levels of TNFα, and IL-6 genes, which is the inflammatory cytokines were confirmed. In order to induce inflammation, the cells were treated with LPS, an inflammation-inducing antigen, and since TNFα corresponds to a signaling protein associated with inflammation, and IL-6 corresponds to a cytokine that promotes inflammation, the degree of inflammation can be confirmed by measuring the expression levels of TNFα and IL-6 genes.
Mouse splenocytes were dispensed into a 24-well plate at a concentration of 1×10^7 cells/well and cultured until the next day. The medium was replaced with serum-free medium, and after 3 hours, the cells were treated with LPS and the peptide of the present invention and then cultured again for another 24 hours. In order to induce inflammation, the cells were treated with LPS at 2 μg/mL, and the peptide at […] and 50 μM, respectively. […] After quantifying the amount of isolated RNA, cDNA was synthesized using a cDNA synthesis kit (Intron, Korea), PCR was performed using a PCR premix (Intron, Korea) and primers for TNFα, and IL-6. […]

TWNS [peptide of the present invention]
decreased: secretion amount of IL-1β ([1]; peptide at 5 μM) | secretion amount of IL-1β ([1]; peptide at 50 μM) | mRNA expression level of TNFα [2]
